Results on 29 compounds are retold here after ChEMBL document CHEMBL4431344, “Synthesis of potent and broad genotypically active NS5B HCV non-nucleoside inhibitors binding to the thumb domain allosteric site 2 of the viral polymerase” (Bioorg Med Chem Lett, 2016).

The structures appear in SMILES notation. Bounds are passed on as bounds.

For assay [1], the system named is Hepatitis C virus. Description: Antiviral activity against HCV assessed as inhibition of viral RNA replication in replicon cells by luciferase reporter gene assay. Format: functional, Hepacivirus hominis. On the technique in general: In antiviral work, replicon cells carry a viral genome segment that copies itself.
Assay [2] concerns the target Genome polyprotein (Hepatitis C virus genotype 1b (strain HC-J4) (HCV), UniProt O92972). The experiment in a line: Inhibition of HCV genotype 1b J4 NS5B RNA dependent RNA polymerase. The arrangement: species or system Hepatitis C virus isolate HC-J4.
Assay [3] deals with RNA-directed RNA polymerase (Hepacivirus hominis, UniProt O39930). The experiment in a line: Inhibition of HCV NS5B RNA dependent RNA polymerase.
Assay [4] addresses Genome polyprotein (Hepatitis C virus genotype 1b (isolate Con1) (HCV), UniProt Q9WMX2). Description: Inhibition of HCV genotype 1b Con1 NS5B RNA dependent RNA polymerase.

Sequence of Genome polyprotein (Hepatitis C virus genotype 1b (strain HC-J4) (HCV), UniProt O92972) (O92972 2420-3010 limits assumed): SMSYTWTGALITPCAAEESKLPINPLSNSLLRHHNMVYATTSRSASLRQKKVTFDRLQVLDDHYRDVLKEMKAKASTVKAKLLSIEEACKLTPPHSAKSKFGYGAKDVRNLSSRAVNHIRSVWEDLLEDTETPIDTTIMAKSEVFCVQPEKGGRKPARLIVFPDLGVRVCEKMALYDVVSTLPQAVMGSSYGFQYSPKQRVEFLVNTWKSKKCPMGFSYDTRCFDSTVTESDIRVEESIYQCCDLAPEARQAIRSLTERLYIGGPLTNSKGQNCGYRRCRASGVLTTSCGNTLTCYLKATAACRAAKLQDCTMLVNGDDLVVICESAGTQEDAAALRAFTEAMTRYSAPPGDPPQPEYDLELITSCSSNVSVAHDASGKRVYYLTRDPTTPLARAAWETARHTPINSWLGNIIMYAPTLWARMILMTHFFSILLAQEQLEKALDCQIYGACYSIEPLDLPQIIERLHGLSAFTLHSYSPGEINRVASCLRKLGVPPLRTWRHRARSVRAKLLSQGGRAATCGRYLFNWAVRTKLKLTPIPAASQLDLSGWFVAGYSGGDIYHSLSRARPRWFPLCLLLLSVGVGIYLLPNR
Sequence of RNA-directed RNA polymerase (O39930 whole entry): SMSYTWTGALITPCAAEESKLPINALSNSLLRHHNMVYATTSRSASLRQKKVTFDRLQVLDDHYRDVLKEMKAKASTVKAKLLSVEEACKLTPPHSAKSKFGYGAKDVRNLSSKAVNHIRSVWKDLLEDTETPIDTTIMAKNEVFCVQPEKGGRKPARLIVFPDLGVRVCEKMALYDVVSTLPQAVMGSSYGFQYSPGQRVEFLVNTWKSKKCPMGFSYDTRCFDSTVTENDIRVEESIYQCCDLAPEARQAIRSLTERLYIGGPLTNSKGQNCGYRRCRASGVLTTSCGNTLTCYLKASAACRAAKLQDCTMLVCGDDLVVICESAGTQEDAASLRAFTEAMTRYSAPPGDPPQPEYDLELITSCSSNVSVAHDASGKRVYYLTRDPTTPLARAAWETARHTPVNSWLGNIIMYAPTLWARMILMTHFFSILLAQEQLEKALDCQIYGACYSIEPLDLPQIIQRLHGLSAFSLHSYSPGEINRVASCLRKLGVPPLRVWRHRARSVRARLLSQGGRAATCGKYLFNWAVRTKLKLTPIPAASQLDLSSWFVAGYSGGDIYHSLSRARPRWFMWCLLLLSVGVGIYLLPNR
Sequence of Genome polyprotein (Hepatitis C virus genotype 1b (isolate Con1) (HCV), UniProt Q9WMX2) (Q9WMX2 2420-3010 limits assumed): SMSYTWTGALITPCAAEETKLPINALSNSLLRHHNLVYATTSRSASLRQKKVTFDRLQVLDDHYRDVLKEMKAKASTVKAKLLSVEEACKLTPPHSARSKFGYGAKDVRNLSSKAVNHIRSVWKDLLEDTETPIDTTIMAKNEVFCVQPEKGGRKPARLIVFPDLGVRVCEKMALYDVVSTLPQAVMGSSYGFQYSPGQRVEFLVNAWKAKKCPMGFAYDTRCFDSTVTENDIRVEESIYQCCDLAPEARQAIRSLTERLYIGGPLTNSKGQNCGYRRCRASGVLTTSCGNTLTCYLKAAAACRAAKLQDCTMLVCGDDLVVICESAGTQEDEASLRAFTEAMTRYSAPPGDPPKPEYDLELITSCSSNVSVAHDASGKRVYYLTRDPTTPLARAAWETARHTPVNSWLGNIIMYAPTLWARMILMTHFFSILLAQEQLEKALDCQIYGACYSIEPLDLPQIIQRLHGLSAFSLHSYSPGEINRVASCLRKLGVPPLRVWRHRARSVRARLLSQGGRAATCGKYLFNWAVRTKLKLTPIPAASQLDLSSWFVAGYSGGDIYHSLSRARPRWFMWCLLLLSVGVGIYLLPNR

Broadly, the EC50 is the concentration at which the effect is half-maximal. In general, IC50 refers to the concentration needed to halve the response being measured. As for `COP(=O)(Nc1cc(-c2ccc(-c3cc4nc(C)ccn4n3)cc2)sc1C(=O)O)c1ccc(C)cc1C` (stereo not given), the EC50 in assay [1] was determined as 0.0007 µM. In assay [2], this compound registered an IC50 of 0.0078 µM.

For `C=CP(=O)(Nc1cc(-c2ccc(Cl)cc2)sc1C(=O)O)OCC` (stereo not given), the half-maximal effective concentration (EC50) in assay [1] is over 8.3 µM. In addition, in assay [2], the IC50 is over 10000 µM.

With `Cc1ccc(P(=O)(Nc2cc(-c3ccc(Cl)cc3)sc2C(=O)O)OCC(C)C)c(C)c1` (stereo not given), in assay [1], the EC50 worked out at 3.04 µM. In addition, half-maximal inhibition in assay [2] (IC50) required 0.223 µM.

`COP(=O)(Nc1cc(-c2ccc(-c3cc4ccccc4s3)cc2)sc1C(=O)O)c1ccc(C)cc1C` (stereo not given): the EC50 in assay [1] came to 0.0232 µM. Moreover, in assay [2], 0.0163 µM corresponded to half-maximal inhibition (IC50).

On to `CCOP(=O)(Nc1cc(-c2ccccc2)sc1C(=O)O)C1CCC(C)CC1` (stereo not given), for which the EC50 in assay [1] was over 8.3 µM. This compound also registered an IC50 in assay [2] of over 10 µM.

As to `COP(=O)(Nc1cc(-c2ccc(F)cc2)sc1C(=O)O)c1ccc(C)cc1C` (stereo not given), in assay [1], the EC50 stood at 2.14 µM. Further, in assay [2], inhibition was half-maximal at 0.118 µM (IC50).

For `Cc1ccc(P(=O)(Nc2cc(-c3ccc(Cl)cc3)sc2C(=O)O)OCCc2ccc(F)cc2)c(C)c1` (stereo not given), the EC50 in assay [1] is 2.41 µM. The IC50 in assay [2] came out at 0.314 µM.

As for `COP(=O)(c1ccc(C)cc1C)N(C)c1cc(-c2ccc(Cl)cc2)sc1C(=O)O` (stereo not given), in assay [1], the EC50 came out at 2.82 µM. Further, in assay [2], half-maximal inhibition (IC50) required 0.059 µM.

In the case of `CCOP(=O)(Nc1cc(-c2ccc(Cl)cc2)sc1C(=O)O)c1ccc(Cl)cc1C` (stereo not given), the EC50 in assay [1] is 2.92 µM. For the same compound, the IC50 in assay [2] is 0.081 µM.

In the case of `COP(=O)(Nc1cc(-c2ccc(-c3cc4ccccc4o3)cc2)sc1C(=O)O)c1ccc(C)cc1C` (stereo not given), in assay [1], the EC50 turned out to be 0.0017 µM. In addition, in assay [2], the IC50 was determined as 0.0056 µM.

On to `CC(C)N(c1cc(-c2ccccc2)sc1C(=O)O)C(=O)[C@H]1CC[C@H](C)CC1`, for which the IC50 in assay [3] was determined as 1.5 µM; in assay [2], 0.035 µM. Besides, in assay [1], the EC50 lay within 0.369 to 0.6 µM.

Take `COP(=O)(Nc1cc(-c2ccc(C#CC3CC3)cc2)sc1C(=O)O)c1ccc(C)cc1C` (stereo not given): the EC50 in assay [1] came out at 2.47 µM. For the same compound, it took 0.0458 µM to reach half-maximal inhibition in assay [2] (IC50).

With `COP(=O)(c1ccc(C)cc1C)N(c1cc(-c2ccc(F)cc2)sc1C(=O)O)C(C)C` (stereo not given), the concentration giving a half-maximal response (EC50) in assay [1] was found to be 4.19 µM. The compound further returned an IC50 in assay [2] of 0.517 µM.

On to `CCCOP(=O)(Nc1cc(-c2ccc(Cl)cc2)sc1C(=O)O)c1ccc(C)cc1C` (stereo not given), for which, in assay [1], the EC50 amounted to 3.53 µM. Further, 0.147 µM corresponded to half-maximal inhibition in assay [2] (IC50).

Turning to `Cc1ccc(P(=O)(Nc2cc(-c3ccc(Cl)cc3)sc2C(=O)O)OCc2cc3ccccc3o2)c(C)c1` (stereo not given), in assay [1], the EC50 was 2.7 µM. For the same compound, the IC50 in assay [2] stood at 0.425 µM.

As for `CCOP(=O)(Nc1cc(-c2ccc(Cl)cc2)sc1C(=O)O)C1CC=C(C)CC1` (stereo not given), the EC50 in assay [1] was over 8.3 µM. Further, in assay [2], inhibition was half-maximal at 1.13 µM (IC50).

`CCOP(=O)(Nc1cc(-c2ccc(Cl)cc2)sc1C(=O)O)C1CCC(C)CC1` (stereo not given): the EC50 in assay [1] is over 8.3 µM. For the same compound, in assay [2], the IC50 came out at 3.74 µM.

On to `COP(=O)(Nc1cc(-c2ccc(-c3cc4nc(C)cc(N)n4n3)cc2)sc1C(=O)O)c1ccc(C)cc1C` (stereo not given), for which the IC50 was 0.009 µM in assay [4] and 0.0051 µM in assay [2]. In assay [1], the EC50 came to 0.0005 µM.

On to `COCCOP(=O)(Nc1cc(-c2ccc(Cl)cc2)sc1C(=O)O)c1ccc(C)cc1C` (stereo not given), for which the EC50 in assay [1] turned out to be 2.66 µM. The compound also had an IC50 in assay [2] of 0.135 µM.

For the compound `COP(=O)(Nc1cc(-c2ccc(Cl)cc2)sc1C(=O)O)c1ccc(Cl)cc1F` (stereo not given), the EC50 in assay [1] worked out at 3.35 µM. The compound further came in with an IC50 in assay [2] of 0.298 µM.

Take `Cc1ccc(S(=O)(=O)Nc2cc(-c3ccccc3)sc2C(=O)O)c(C)c1`: the IC50 in assay [3] came out at 1 µM. The EC50 in assay [1] amounted to 5 µM.

`COP(=O)(Nc1cc(-c2ccc(-c3cc4ncccc4o3)cc2)sc1C(=O)O)c1ccc(C)cc1C` (stereo not given): the EC50 in assay [1] was 0.0007 µM. The IC50 in assay [2] turned out to be 0.0054 µM.

Take `CCCCOP(=O)(Nc1cc(-c2ccc(Cl)cc2)sc1C(=O)O)c1ccc(C)cc1C` (stereo not given): the EC50 in assay [1] worked out at 2.71 µM. In assay [2], this compound gave an IC50 of 0.17 µM.

Turning to `Cc1ccc(P(=O)(Nc2cc(-c3ccc(Cl)cc3)sc2C(=O)O)OC(C)C)c(C)c1` (stereo not given), in assay [1], the EC50 was 2.28 µM. Besides, the IC50 in assay [2] came to 0.189 µM.

As for `Cc1ccc(P(=O)(Nc2cc(-c3ccc(Cl)cc3)sc2C(=O)O)OCC2CCOCC2)c(C)c1` (stereo not given), in assay [1], the EC50 worked out at 0.32 µM. In addition, in assay [2], the midpoint of inhibition, the IC50, lay at 0.154 µM.

In the case of `COP(=O)(Nc1cc(-c2ccc(Cl)cc2)sc1C(=O)O)c1ccc(Cl)cc1C` (stereo not given), in assay [1], the EC50 came to 1.55 µM. In assay [2], this compound registered an IC50 of 0.026 µM.

As to `Cc1ccc(P(=O)(Nc2cc(-c3ccc(Cl)cc3)sc2C(=O)O)OCCC(C)C)c(C)c1` (stereo not given), the half-maximal effective concentration (EC50) in assay [1] amounted to 3.56 µM. The IC50 in assay [2] was determined as 0.298 µM.

Consider `COP(=O)(Nc1cc(-c2ccc(Cl)cc2)sc1C(=O)O)c1ccc(C)cc1C` (stereo not given), for which, in assay [1], the EC50 was found to be 0.66 µM. This compound also displayed an IC50 in assay [2] of 0.021 µM.

For the compound `COP(=O)(Nc1cc(-c2ccc(C#Cc3ccsc3)cc2)sc1C(=O)O)c1ccc(C)cc1C` (stereo not given), in assay [1], the EC50 is 0.0048 µM. The compound further registered an IC50 in assay [2] of 0.0092 µM.
